According to patent publication US8133882B2, “Quinolone derivative or pharmaceutically acceptable salt thereof” (Astellas Pharma Inc, priority 2006, dated 2012):

Key:
[1] = tested on: human platelet aggregation (ADP-induced, platelet rich plasma); experiment: Human platelet aggregation inhibition activity measuring test (ADP-induced, PRP); type: cell-based; conditions: 10 μM final concentration of compound; human PRP 3×10^8 platelets/ml; ADP (50 μM, 10 μl) induced; area under platelet aggregation curve
Experimental: Test Method (1) Human Platelet Aggregation Inhibition Activity Measuring Test
A blood sample was collected from a healthy volunteers (adult) using a syringe containing 1/10th volume of 3.8% sodium citrate solution and centrifuged at 160×g for 10 minutes, thereby separating platelet rich plasma (PRP) of the supernatant. Remaining blood after the collection of PRP was centrifuged at 1,800×g for 10 minutes to separate platelet poor plasma (PPP). The number of platelets in the PRP was measured by an automatic blood cell counter (MEK-6258, Nihon Kohden Corp.), and then the number of platelets was adjusted to 3×10^8/ml by adding PPP to PRP and used in the following test. The ADP as an inducer of platelet aggregation was purchased from MC Medical. Platelet aggregation was measured using an aggregometer (MCM Hematracer 212; MC Medical). That is, 80 μl of PRP of 3×10^8 platelets/ml and 10 μl of a test compound solution or a solvent (10% DMSO or 10% DMSO-9% hydroxypropyl-β-cyclodextrin-4.5% d-mannitol) were incubated at 37° C. for 1 minute, and then 10 μl of ADP (50 μM) was added thereto to induce platelet aggregation, and changes in transmitted light were recorded for 5 minutes. The inhibition ratio was calculated using the area under platelet aggregation curve as an index.
In this connection, REx represents reference example number, and Ex Example compound number. In addition, Reference Examples 1 and 2 are the Example compounds described in the aforementioned Patent Reference 7, and were produced in accordance with the method described in said patent reference.

Human P2Y12 = target: T1, Human P2Y12 (Homo sapiens, UniProt Q9H244); experiment: Substitution test for the binding of human P2Y12 with 2-methylthio-ADP (2-MeS-ADP); conditions: 30 nM final concentration of compound; P2Y12 expression C6-15 cell membrane fraction; 0.75 nM [3H]- or [33P]-2-MeS-ADP
T1 construct: expressed in transfected cells; membrane fraction used
T1 sequence (Q9H244 whole entry): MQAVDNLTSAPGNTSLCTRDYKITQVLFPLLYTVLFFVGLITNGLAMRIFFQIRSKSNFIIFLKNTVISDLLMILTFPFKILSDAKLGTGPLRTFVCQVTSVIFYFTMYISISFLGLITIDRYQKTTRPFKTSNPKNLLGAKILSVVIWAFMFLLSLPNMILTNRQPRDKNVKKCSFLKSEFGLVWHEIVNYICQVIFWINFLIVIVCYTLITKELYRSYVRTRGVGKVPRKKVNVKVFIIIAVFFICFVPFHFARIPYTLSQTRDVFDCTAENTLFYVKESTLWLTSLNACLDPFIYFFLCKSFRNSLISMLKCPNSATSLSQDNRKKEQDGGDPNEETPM
Experimental: Test Method (2) Substitution Test for the Binding of Human P2Y12 with 2-methylthio-ADP (2-MeS-ADP)
A C6-15 cell was inoculated into a 10 cm petri dish to a density of to 1×10^6 cells using DMEM medium and cultured for 1 day, and then 8 μg of a plasmid pEF-BOS-dfhr-human P2Y12 and 0.8 μg of pEF-BOS-neo (Nucleic Acid Res., 18, 5322, 1990) were gene-transferred using a transfection reagent (LipofectAMINE 2000; mfd. by GIBCO BRL).
24 hours after the aforementioned gene transfer operation, the gene-transferred cells were recovered, suspended in DMEM medium supplemented with 0.6 mg/ml of G 418 (mfd. by GIBCO BRL) and then serially diluted and inoculated again in a 10 cm petri dish. The colonies appeared after 2 weeks were individually obtained and used in the following test as P2Y12 protein expression C6-15 cells (WO 02/36631, Mol. Pharmacol., 60, 432, 2001).
After culturing the P2Y12 protein expression C6-15 cells, the cells were recovered. […]
A 100 μl portion of the P2Y12 protein expression C6-15 cell membrane fraction (100 μg/ml) obtained in the above was mixed with 1.5 μl of a test compound solution and 50 μl of 0.75 nM [^3H]-2-MeS-ADP (80 Ci/mmol, mfd. by Amersham Pharmacia Biotech) or 0.75 nM [^33P]-2-MeS-ADP (2100 Ci/mmol, mfd. by Perkin Elmer), incubated at room temperature for 1 hour in 50 mM Tris-HCl (pH 7.4) containing 100 mM NaCl and 50 mM MgCl2, and then recovered on a glass filter using a cell harvester. A microscintillator was added to the glass filter, and the radioactivity was measured using a liquid scintillation counter. Those to which the solvent alone was added and 1.5 μl of 250 μM ADP was added in the aforementioned test at the same time were regarded as total binding and nonspecific binding, and their radioactivity was measured. By regarding the total binding and nonspecific binding as inhibition ratio 0% and 100% respectively, inhibition ratio (%) of each compound to be tested was calculated.

[2] = tested on: rat platelet aggregation (ADP-induced, PRP); experiment: Rat platelet aggregation inhibition test (oral administration, ex vivo ADP-induced aggregation); type: in vivo; conditions: dose 30 mg/kg oral, male SD rat, blood collected 2 hours after administration
Experimental: Test Method (3) Rat Platelet Aggregation Inhibition Test and Measurement of Test Compound Concentration in Plasma
By adding sodium hydroxide aqueous solution to the compound of the present invention, 0.5% methyl cellulose aqueous solution or suspension was prepared. The thus prepared liquid was orally administered using a sonde to a male SD rat (5 to 7 weeks of age) of after 12 hours or more of fasting. After 2 hours of the compound administration, blood was collected using a syringe containing 1/10th volume of 3.8% sodium citrate solution. In the same manner as in Test method (1), PPP and PRP of 3×10^8 platelets/ml were prepared. A 90 μl portion of the PRP of 3×10^8 platelets/ml was incubated at 37° C. for 1 minute, and then 10 μl of ADP (50 μM) was added thereto to induce platelet aggregation, and changes in transmitted light were recorded for 5 minutes. The inhibition ratio was calculated using the area under platelet aggregation curve as an index.

Compound | inhibition at 10 µM [1] [%] | inhibition at 0.03 µM (Human P2Y12) [%] | inhibition at 30 mg/kg [2] [%]
O=C(O)CCC(=O)Nc1cn(C2CCCC2)c2cc(NC3CCCCC3)c(F)cc2c1=O [Ex 2, 4-{[7-(cyclohexylamino)-1-cyclopentyl-6-fluoro-4-oxo-1,4-dihydroquinolin-3-yl]amino}-4-oxobutanoic acid] | 93 | 89 | –
O=C(O)CCCNC(=O)c1cn(C2CCCC2)c2cc(NC3CCCCC3)c(F)cc2c1=O [REx 1, 4-({[7-(cyclohexylamino)-1-cyclopentyl-6-fluoro-4-oxo-1,4-dihydroquinolin-3-yl]carbonyl}amino)butanoic Acid] | 64 | 76 | 11
O=C(O)CNC(=O)c1cn(C2CCCC2)c2cc(NC3CCCCC3)c(F)cc2c1=O [REx 2, ({[7-(cyclohexylamino)-1-cyclopentyl-6-fluoro-4-oxo-1,4-dihydroquinolin-3-yl]carbonyl}amino)acetic Acid] | 79 | 86 | -7
